Measured values published in patent US11649245B2, “Cyclopropylamine compound as LSD1 inhibitor and use thereof” (HELIOEAST PHARMACEUTICAL CO., LTD., priority 2018, dated 2023).
Where a name gives a salt, the structure may show the parent alone. Read-outs that look alike come from different tables or passages of the source.

Columns and labels:
NCI-H1417 cells = experiment: Antiproliferation activity on NCI-H1417 cells (CellTiter-Glo, 10 days); assay type: cell-based, human; conditions: incubated for 10 days
Method: Experimental purpose: to detect the antiproliferation activity of the compounds on NCI-H1417 cells.
Experimental materials: RPMI 1640 culture medium, fetal bovine serum, Promega CellTiter-Glo reagent. NCI-H1417 cell line purchased from ATCC. Envision multi-label reader (PerkinElmer).
Experimental method: the compounds were dissolved to 10 mM, then the compounds were diluted 5 times with DMSO in a compound plate, the compounds were diluted 3-fold with Bravo from a starting concentration of 2 mM to the 10th concentration, 250 nL of the solutions were transferred to the upper and lower duplicate wells on a blank 384 cell plate by Echo transfer plate, cell suspension of per well/1000 cells/50 μL was added to the transferred 250 nL DMSO/compound, the compounds were diluted 200-fold, i.e., the initial action concentration was 10 μM. The cell plate was placed in a carbon dioxide incubator and incubated for 10 days. 25 μL of Promega CellTiter-Glo reagent was added to each well on the cell plate and was shaken at room temperature for 10 minutes to stabilize the luminescence signal. Readings were performed by PerkinElmer Envision multi-label analyzer.
Data analysis: the equation (Max-Ratio)/(Max-Min)*100% was used to convert the original data into the inhibition rate, the value of IC50 can be obtained by curve fitting of four-parameters (the 205 mode in XLFITS, iDBS).

MV-4-11 cells = experiment: Antiproliferation activity on MV-4-11 cells (CellTiter-Glo, 6 days); assay type: cell-based; conditions: incubated for 6 days
Source text: Experimental purpose: to detect the antiproliferation activity of the compound to be tested on MV-4-11 cells.
(§1) Experimental materials: IMDM culture medium, fetal bovine serum, penicillin/streptomycin antibiotics purchased from Wisent. CellTiter-Glo (chemiluminescent cell viability assay reagent) reagents purchased from Promega. MV-4-11 cell line was purchased from Nanjing Cobioer Co., Ltd. Nivo Multi-Marker Analyzer (PerkinElmer).
Experimental method: MV-4-11 cells were planted in a white 96-well plate, 80 μL of cell suspension per well, which contained 6000 MV-4-11 cells. The cell plate was placed in a carbon dioxide incubator for overnight culture.
The compounds to be tested were diluted 5-fold with a pipet until the 8th concentration, i.e., diluted from 2 mM to 25.6 nM, double duplicate well experiment was set. 78 μL of the culture medium was added to an intermediate plate, and then 2 μL per well of the serially diluted compounds were transferred to the corresponding positions on the intermediate plate, after mixing, 20 μL per well was transferred to the cell plate. The cell plate was incubated in a carbon dioxide incubator for 6 days. Another cell plate was prepared and the signal value on the day of dosing was read as the maximum value (Max value in the equation below) to participate in the data analysis. 25 μL of the chemiluminescent cell viability assay reagent was added to each well of this cell plate, which was incubated at room temperature for 10 minutes to stabilize the luminescence signal. The multi-label analyzer was used for reading.
(§2) Data analysis: the equation (Sample-Min)/(Max-Min)*100% was used to convert the original data into the inhibition rate, the IC50 value can be obtained by curve fitting of four-parameters (“log(inhibitor) vs. response—Variable slope” mode in GraphPad Prism)).

[1] = In vivo pharmacokinetics in CD-1 mice; conditions: male CD-1 mice; for half-life / clearance / Vd: iv; for half-life / clearance / Vd / Half-life T1/2 (IV): 1 mg/kg; for half-life / Half-life T1/2 (IV): IV 1 mg/kg; for half-life: read-out: Half-life T1/2 (IV) (converted); for clearance / Vd / Cmax / Clearance CL / Volumes of distribution Vdss: study doses 1 mg/kg intravenous, 2 mg/kg oral; for clearance: read-out: Clearance CL; for Vd: read-out: Volumes of distribution Vdss; for Cmax: route not given, read-out: Max concentration Cmax; for AUC(0-t) / bioavailability: po; for AUC(0-t) / bioavailability / The area under the plasma concentration-time curve AUC0-last PO: 2 mg/kg; for AUC(0-t) / The area under the plasma concentration-time curve AUC0-last PO: PO 2 mg/kg; for AUC(0-t): read-out: The area under the plasma concentration-time curve AUC0-last PO; for bioavailability / Bioavailability F: oral 2 mg/kg vs intravenous 1 mg/kg; for bioavailability: read-out: Bioavailability F
Method: CD-1 mice (male, 7-9 weeks old, Shanghai Slac)
The rodent pharmacokinetic characteristics after intravenous injection and oral administration of the compounds were tested by standard protocols, in the experiment, the candidate compounds were formulated into clear solutions and administrated to mice via a single intravenous injection and oral administration. The vehicle for intravenous injection and oral administration was a mixed solution of 10% of dimethyl sulfoxide and 90% of 10% hydroxypropyl β cyclodextrin. This project used four male CD-1 mice, two mice were administered intravenously, with a dose of 1 mg/kg, and plasma samples were collected at 0 hour (before administration) and 0.0833, 0.25, 0.5, 1, 2, 4, 8, 24 hours after administration. The other two mice were orally administered by gavage, with a dose of 2 mg/kg, plasma samples were collected at 0 hour (before administration) and 0.25, 0.5, 1, 2, 4, 8, 24 hours after administration, whole blood samples were collected within 24 hours, which were centrifuged at 3000 g for 15 minutes, and the supernatants were separated to obtain plasma samples, 4 times volume of acetonitrile solutions containing internal standard were added to precipitate the protein, the mixtures were centrifuged to obtain the supernatants, the supernatants were added with water of equal volume and centrifuged again to take the supernatant for injection, and the blood drug concentration was quantitatively analyzed by the LC-MS/MS analysis method, and pharmacokinetic parameters were calculated, such as max concentration (Cmax), clearance (CL), half-life (T1/2), volumes of distribution (Vdss), the area under the plasma concentration-time curve (AUC0-last), bioavailability (F) etc.

HL60 cells = experiment: Antiproliferation activity on HL60 cells (CellTiter-Glo, 6 days); assay type: cell-based; conditions: incubated for 6 days
Source text: Experimental purpose: to detect the antiproliferation activity of the compound to be tested on HL60 cells.
as §1, with “RPMI-1640” for “IMDM”, “HL60” for “MV-4-11”, “line” for “line was”, “multi-label reader” for “Multi-Marker Analyzer”
Experimental method: HL60 cells were planted in a white 384-well plate, 40 μL of cell suspension per well, 600 HL60 cells were contained therein. The cell plate was placed in a carbon dioxide incubator for overnight culture. The compounds to be tested were diluted 5-fold with a pipet until the 10th concentration, i.e., diluted from 2 mM to 1.024 nM, double duplicate well experiment was set. 78 μL of the culture medium was added to an intermediate plate, and then 2 μL per well of the serially diluted compounds were transferred to the corresponding positions on the intermediate plate, after mixing, 10 μL per well was transferred to the cell plate. The cell plate was incubated in a carbon dioxide incubator for 6 days. Another cell plate was prepared and the signal value on the day of dosing was read as the maximum value (Max value in the equation below) to participate in the data analysis. 20 μL of chemiluminescent cell viability assay reagent was added to each well of this cell plate, which was incubated at room temperature for 10 minutes to stabilize the luminescence signal. The multi-label reader was used for reading.
as §2

human LSD1 = human LSD1 (Homo sapiens, UniProt O60341); experiment: In vitro enzyme activity screening against LSD1 (HRP/Amplex Red fluorescence coupling enzyme method); assay type: biochemical; conditions: human LSD1, histone H3K4me peptide substrate 20 μM
Method: The purpose of this test was to detect the in vitro inhibitory activity of the compounds against LSD1. The enzyme used in this test was human LSD1, the standard substrate was histone H3K4me peptide (20 μM), the fluorescence coupling enzyme method was used to determine the activity of the compound by combining horseradish peroxidase (HRP) and fluorescent reagent Amplex Red to detect the H2O2 generation as a result of the reaction of LSD1. Compounds were tested in 10-dose IC50 mode with a 3-fold serial dilution starting at 10 μM. The enzyme and […] to start the reaction. Fluorescence detector: Envision, excitation wavelength: Ex/Em=530/590 […]

[2] = system: human small cell lung cancer NCI-H1417 xenograft tumor model; experiment: In vivo pharmacodynamic study on NCI-H1417 subcutaneous xenograft tumor in CB-17 SCID mice; conditions: compound 6 hydrochloride 1.5 mg/kg oral once a day, cisplatin 1 mg/kg i.p. twice a week
Method: The purpose of the experiment was to evaluate the in vivo efficacy of the compounds of the present disclosure on subcutaneous xenograft tumor of human small cell lung cancer NCI-H1417 cells in a CB-17 SCID mouse model.
Human small cell lung cancer NCI-H1417 cells (ATCC) were cultured in vitro in a single layer, the culture conditions were RPMI-1640 culture medium supplemented with 10% fetal bovine serum, 37° C. 5% CO2. When the cell saturation reached 80%-90%, the cells were collected, counted, and inoculated.
0.2 mL of 10×10^6 NCI-H1417 cells were subcutaneously inoculated into the right back of each mouse (PBS: Matrigel=1:1). Group administration was started when the average volume reached 100-150 mm^3.
The vehicle used in the experiment was 0.5% methylcellulose solution, the preparation method was: 5 g of methylcellulose was weighed and dissolved in 800 mL ultrapure water, stirred evenly and made up to 1000 mL with ultrapure water. The test substance was dissolved in a solvent and prepared into a uniform solution of a certain concentration, and stored at 4° C.
Cisplatin (Cisplatin, manufacturer Qilu Pharmaceutical Co., Ltd., 10 mg/bottle freeze-dried powder for injection, lot number 7D011A8) was added to 10 mL 0.9% NaCl to make a 1 mg/mL mother liquor, and stored at room temperature and protected from light. The mother liquor was aliquoted into 0.63 mL and stored at room temperature. 5.67 mL 0.9% NaCl was added to one of the 0.63 mL mother liquor to make a 0.1 mg/mL solution.
The experimental indicator is to investigate whether tumor growth was inhibited, delayed, or cured. Tumor diameters were measured with a vernier caliper twice a week. The tumor volume was calculated by the calculation formula: V=0.5a×b^2, a and b respectively represent the long and short diameters of the tumor.
The anti-tumor effect of the compounds was evaluated by TGI (%). TGI (%) can reflect the tumor growth inhibition rate. TGI (%) calculation: TGI (%)=[1-(the average tumor volume at the end of the administration in a treatment group—the average tumor volume at the beginning of the administration in the treatment group)/(the average tumor volume at the end of the treatment of the solvent control group—the average tumor volume at the beginning of the treatment of the solvent control group)]×100%.

NC1(C(=O)N2CCC3(CC2)CC(N[C@@H]2C[C@H]2c2ccccc2)CO3)CC1 (stereo partly drawn) [Hydrochloride of the compound 34]
IC50 (NCI-H1417 cells; Homo sapiens, NCI-H1417, 240 h): 4.38 nM
IC50 (MV-4-11 cells; Homo sapiens, MV4-11, 144 h): 1.37 nM
half-life ([1]; male, CD-1, mouse, plasma): 83.4 min
clearance ([1]; male, CD-1, mouse, plasma): 25.3 mL/min/kg
Vd ([1]; male, CD-1, mouse, plasma): 2.09 L/kg
Cmax ([1]; male, CD-1, mouse, plasma): 1150 nM
AUC(0-t) ([1]; male, CD-1, mouse, plasma): 2.14 µM·h
bioavailability ([1]; male, CD-1, mouse, plasma): 58.3%
IC50 (HL60 cells; Homo sapiens, HL-60, 144 h): 1.92 nM
IC50 (human LSD1): 38.4 nM

N.N.[Cl][Pt][Cl] [Cisplatin, reference compound]
Tumor volume mean ± SEM (28th day) ([2]; CB-17 SCID mice): 165 ± 22 mm^3
TGI ([2]; tumor growth inhibition rate, 28th day): 85.9%

O=C(O)c1ccc(CN2CCC3(CC2)CC(N[C@@H]2C[C@H]2c2ccccc2)CO3)cc1 (stereo partly drawn) [Hydrochloride of the compound 16]
IC50 (NCI-H1417 cells; Homo sapiens, NCI-H1417, 240 h): 12.1 nM
IC50 (MV-4-11 cells): 13.7 nM
Half-life T1/2 (IV) [1]: 34.7 min
The area under the plasma concentration-time curve AUC0-last PO [1]: 0.891 µM·h
Bioavailability F [1]: 36.9%
Clearance CL [1]: 33.8 mL/min/kg
Volumes of distribution Vdss [1]: 0.88 L/kg
Cmax [1]: 860 nM
IC50 (HL60 cells; Homo sapiens, HL-60, 144 h): 8.46 nM
IC50 (human LSD1): 262 nM

O=C(O)c1ccc(CN2CCC3(CC2)CC(N[C@@H]2C[C@H]2c2ccccc2)CO3)cn1 (stereo partly drawn) [Hydrochloride of the compound 20]
IC50 (NCI-H1417 cells; Homo sapiens, NCI-H1417, 240 h): 3.99 nM
IC50 (MV-4-11 cells; Homo sapiens, MV4-11, 144 h): 9.56 nM
half-life ([1]; male, CD-1, mouse, plasma): 54.3 min
clearance ([1]; male, CD-1, mouse, plasma): 19.7 mL/min/kg
Vd ([1]; male, CD-1, mouse, plasma): 0.752 L/kg
Cmax ([1]; male, CD-1, mouse, plasma): 714 nM
AUC(0-t) ([1]; male, CD-1, mouse, plasma): 1.34 µM·h
bioavailability ([1]; male, CD-1, mouse, plasma): 29%
IC50 (HL60 cells; Homo sapiens, HL-60, 144 h): 8.99 nM
IC50 (human LSD1): 242 nM

O=C(O)c1ccc(CN2CCC3(CC2)CC(N[C@@H]2C[C@H]2c2ccccc2)CO3)cc1 (stereo partly drawn) [Hydrochloride of the compound 15]
IC50 (NCI-H1417 cells): 13.1 nM
IC50 (MV-4-11 cells): 13.2 nM
Half-life T1/2 (IV) [1]: 29.4 min
The area under the plasma concentration-time curve AUC0-last PO [1]: 0.765 µM·h
Bioavailability F [1]: 39.1%
Clearance CL [1]: 41.8 mL/min/kg
Volumes of distribution Vdss [1]: 0.835 L/kg
Cmax [1]: 919 nM
IC50 (HL60 cells): 13.8 nM
IC50 (human LSD1): 353 nM

O=C(O)C1(CN2CCC3(CC2)CC(N[C@@H]2C[C@H]2c2ccccc2)CO3)CCC1 (stereo partly drawn) [Hydrochloride of the compound 30]
IC50 (NCI-H1417 cells; Homo sapiens, NCI-H1417, 240 h): 91.4 nM
IC50 (MV-4-11 cells; Homo sapiens, MV4-11, 144 h): 33.1 nM
IC50 (HL60 cells; Homo sapiens, HL-60, 144 h): 337 nM
IC50 (human LSD1): 1140 nM

N#Cc1ccc(CN2CCC3(CC2)CC(N[C@@H]2C[C@H]2c2ccccc2)CO3)cc1 (stereo partly drawn) [Hydrochloride of the compound 21]
IC50 (NCI-H1417 cells; Homo sapiens, NCI-H1417, 240 h): 1.12 nM
IC50 (MV-4-11 cells; Homo sapiens, MV4-11, 144 h): 0.46 nM
IC50 (HL60 cells; Homo sapiens, HL-60, 144 h): 1.17 nM
IC50 (human LSD1): 92.2 nM

O=C(O)CC1(N2CCC3(CC2)CC(N[C@@H]2C[C@H]2c2ccccc2)CO3)CNC1 (stereo partly drawn) [Hydrochloride of the compound 32]
IC50 (NCI-H1417 cells; Homo sapiens, NCI-H1417, 240 h): 3.97 nM
IC50 (MV-4-11 cells; Homo sapiens, MV4-11, 144 h): 1.9 nM
IC50 (HL60 cells; Homo sapiens, HL-60, 144 h): 0.55 nM
IC50 (human LSD1): 1160 nM
